The target of one test is T1, Adenosine receptor A1 (Homo sapiens, UniProt P30542).
T1 sequence (P30542 whole entry): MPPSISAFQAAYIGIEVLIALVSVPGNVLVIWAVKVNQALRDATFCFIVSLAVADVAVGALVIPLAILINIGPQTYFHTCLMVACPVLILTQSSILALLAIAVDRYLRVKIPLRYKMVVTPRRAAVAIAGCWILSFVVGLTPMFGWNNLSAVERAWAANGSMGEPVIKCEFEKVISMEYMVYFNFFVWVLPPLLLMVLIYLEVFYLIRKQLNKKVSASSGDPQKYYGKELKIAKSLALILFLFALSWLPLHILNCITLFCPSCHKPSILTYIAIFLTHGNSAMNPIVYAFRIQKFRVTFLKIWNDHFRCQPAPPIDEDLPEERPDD

Another test has as its target T2, Adenosine receptor A3 (Homo sapiens, UniProt P0DMS8).
T2 sequence (P0DMS8 whole entry): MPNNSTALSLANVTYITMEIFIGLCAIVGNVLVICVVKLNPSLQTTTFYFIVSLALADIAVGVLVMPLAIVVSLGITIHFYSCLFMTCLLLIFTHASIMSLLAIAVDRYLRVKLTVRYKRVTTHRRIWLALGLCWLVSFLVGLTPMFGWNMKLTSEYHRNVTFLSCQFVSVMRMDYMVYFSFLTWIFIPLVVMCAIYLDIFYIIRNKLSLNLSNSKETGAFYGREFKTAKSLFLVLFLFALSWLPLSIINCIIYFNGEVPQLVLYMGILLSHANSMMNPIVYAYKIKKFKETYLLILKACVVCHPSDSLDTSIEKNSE

For test [1], the target named is Beta-2 adrenergic receptor (Homo sapiens, UniProt P07550).
A further test addresses T3, B2 bradykinin receptor (Homo sapiens, UniProt P30411).
T3 sequence (P30411 whole entry): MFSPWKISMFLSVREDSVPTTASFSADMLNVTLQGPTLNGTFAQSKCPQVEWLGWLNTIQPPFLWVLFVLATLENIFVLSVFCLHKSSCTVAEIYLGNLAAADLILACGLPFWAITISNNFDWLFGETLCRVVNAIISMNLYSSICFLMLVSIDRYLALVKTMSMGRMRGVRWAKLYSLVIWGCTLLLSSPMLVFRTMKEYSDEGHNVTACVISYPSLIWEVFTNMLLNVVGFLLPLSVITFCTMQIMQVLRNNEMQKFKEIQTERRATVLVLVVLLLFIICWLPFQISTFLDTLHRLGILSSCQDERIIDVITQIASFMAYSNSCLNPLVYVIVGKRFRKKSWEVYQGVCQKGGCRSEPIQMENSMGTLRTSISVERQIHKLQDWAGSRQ

The target of test [2] is Neuronal acetylcholine receptor subunit alpha-4 (Homo sapiens, UniProt P43681).
In another test the target is T4, Estrogen receptor (Homo sapiens, UniProt P03372).
T4 sequence (P03372 whole entry): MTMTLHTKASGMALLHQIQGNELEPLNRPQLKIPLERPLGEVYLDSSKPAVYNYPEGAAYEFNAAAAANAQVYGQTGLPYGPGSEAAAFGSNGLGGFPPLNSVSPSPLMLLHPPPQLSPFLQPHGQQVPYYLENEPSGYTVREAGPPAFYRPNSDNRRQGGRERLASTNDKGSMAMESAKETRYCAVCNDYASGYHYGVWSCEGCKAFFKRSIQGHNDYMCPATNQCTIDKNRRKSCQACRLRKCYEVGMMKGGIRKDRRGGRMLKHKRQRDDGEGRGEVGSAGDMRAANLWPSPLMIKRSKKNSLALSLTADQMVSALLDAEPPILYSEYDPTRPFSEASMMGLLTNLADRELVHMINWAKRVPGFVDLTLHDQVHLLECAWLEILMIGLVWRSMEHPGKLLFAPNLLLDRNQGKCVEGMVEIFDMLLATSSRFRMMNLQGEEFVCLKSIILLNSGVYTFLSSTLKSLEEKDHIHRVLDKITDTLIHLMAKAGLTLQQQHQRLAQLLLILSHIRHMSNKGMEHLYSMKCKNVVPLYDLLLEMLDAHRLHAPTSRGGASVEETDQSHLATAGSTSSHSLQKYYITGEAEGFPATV

Test [3] concerns the target Growth hormone secretagogue receptor type 1 (Homo sapiens, UniProt Q92847).
Test [4] addresses T5, Equilibrative nucleoside transporter 1 (Homo sapiens, UniProt Q99808).
T5 sequence (Q99808 whole entry): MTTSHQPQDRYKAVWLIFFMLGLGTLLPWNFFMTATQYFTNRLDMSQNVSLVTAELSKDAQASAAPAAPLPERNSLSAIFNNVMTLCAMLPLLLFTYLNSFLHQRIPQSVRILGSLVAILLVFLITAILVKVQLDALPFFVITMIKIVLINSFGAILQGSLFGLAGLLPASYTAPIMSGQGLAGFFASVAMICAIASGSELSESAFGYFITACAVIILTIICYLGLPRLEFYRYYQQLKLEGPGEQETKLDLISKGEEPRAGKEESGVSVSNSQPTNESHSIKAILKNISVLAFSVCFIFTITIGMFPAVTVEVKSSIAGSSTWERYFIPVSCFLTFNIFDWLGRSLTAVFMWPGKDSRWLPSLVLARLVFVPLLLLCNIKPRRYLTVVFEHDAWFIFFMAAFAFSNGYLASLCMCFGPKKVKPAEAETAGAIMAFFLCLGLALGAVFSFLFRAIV

In the next test the target is D(3) dopamine receptor (Homo sapiens, UniProt P35462).
The target of the next test is Histamine H3 receptor (Homo sapiens, UniProt Q9Y5N1).
For test [5], the target named is T6, Muscarinic acetylcholine receptor M1 (Homo sapiens, UniProt P11229).
T6 sequence (P11229 whole entry): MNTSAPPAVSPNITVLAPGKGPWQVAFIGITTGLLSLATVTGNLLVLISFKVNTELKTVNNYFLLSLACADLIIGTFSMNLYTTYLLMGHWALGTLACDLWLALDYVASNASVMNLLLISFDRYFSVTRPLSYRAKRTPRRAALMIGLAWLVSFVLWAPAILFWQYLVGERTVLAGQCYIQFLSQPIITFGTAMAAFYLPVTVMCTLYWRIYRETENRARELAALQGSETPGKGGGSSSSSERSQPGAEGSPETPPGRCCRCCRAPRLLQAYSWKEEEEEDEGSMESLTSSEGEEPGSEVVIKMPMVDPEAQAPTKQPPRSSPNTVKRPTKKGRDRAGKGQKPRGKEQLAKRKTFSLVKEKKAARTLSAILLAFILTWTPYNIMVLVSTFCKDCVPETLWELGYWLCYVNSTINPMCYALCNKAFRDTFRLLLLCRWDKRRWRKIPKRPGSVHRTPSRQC
The class given is functional, cell-based.

For 30 compounds, AC50 results are on record in ChEMBL document CHEMBL5291721, “A preclinical secondary pharmacology resource illuminates target-adverse drug reaction associations of marketed drugs” (Nat Commun, 2023).

Molecules are shown by their SMILES.
Also: assay procedure not described here.

Growth hormone secretagogue receptor type 1, sequence (Q92847 whole entry): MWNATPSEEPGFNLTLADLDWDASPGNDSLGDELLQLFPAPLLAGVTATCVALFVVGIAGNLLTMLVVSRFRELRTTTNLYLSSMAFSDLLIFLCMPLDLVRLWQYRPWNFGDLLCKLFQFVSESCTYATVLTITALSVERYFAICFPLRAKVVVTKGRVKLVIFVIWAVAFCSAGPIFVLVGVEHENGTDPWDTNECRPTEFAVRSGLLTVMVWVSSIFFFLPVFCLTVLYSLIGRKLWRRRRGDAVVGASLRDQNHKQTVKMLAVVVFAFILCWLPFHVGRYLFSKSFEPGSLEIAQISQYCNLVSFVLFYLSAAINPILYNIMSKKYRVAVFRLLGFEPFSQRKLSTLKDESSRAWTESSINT
Histamine H3 receptor, sequence (Q9Y5N1 whole entry): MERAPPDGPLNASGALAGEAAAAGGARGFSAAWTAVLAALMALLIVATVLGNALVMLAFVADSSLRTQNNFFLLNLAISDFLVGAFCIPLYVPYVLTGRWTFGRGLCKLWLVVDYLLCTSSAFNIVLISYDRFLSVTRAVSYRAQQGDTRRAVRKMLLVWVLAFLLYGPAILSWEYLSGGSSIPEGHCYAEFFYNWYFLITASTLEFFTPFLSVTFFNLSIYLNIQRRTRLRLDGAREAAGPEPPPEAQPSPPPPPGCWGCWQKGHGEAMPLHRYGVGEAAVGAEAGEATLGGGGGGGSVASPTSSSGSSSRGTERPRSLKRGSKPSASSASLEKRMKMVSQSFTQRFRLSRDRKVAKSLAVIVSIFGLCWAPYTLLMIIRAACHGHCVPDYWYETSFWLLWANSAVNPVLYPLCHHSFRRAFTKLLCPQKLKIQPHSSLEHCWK
Beta-2 adrenergic receptor, sequence (P07550 whole entry): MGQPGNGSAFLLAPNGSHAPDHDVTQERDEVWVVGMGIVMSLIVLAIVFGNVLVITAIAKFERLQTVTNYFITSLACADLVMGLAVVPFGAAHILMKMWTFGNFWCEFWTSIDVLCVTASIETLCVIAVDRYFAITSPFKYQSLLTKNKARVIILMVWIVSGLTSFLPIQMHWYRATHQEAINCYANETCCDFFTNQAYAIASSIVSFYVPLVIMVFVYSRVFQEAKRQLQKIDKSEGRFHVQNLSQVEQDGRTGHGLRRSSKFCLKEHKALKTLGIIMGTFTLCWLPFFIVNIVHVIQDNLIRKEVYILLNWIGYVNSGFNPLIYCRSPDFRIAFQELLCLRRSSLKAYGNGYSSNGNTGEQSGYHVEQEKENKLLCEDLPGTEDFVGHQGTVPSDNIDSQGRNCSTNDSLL
D(3) dopamine receptor, sequence (P35462 whole entry): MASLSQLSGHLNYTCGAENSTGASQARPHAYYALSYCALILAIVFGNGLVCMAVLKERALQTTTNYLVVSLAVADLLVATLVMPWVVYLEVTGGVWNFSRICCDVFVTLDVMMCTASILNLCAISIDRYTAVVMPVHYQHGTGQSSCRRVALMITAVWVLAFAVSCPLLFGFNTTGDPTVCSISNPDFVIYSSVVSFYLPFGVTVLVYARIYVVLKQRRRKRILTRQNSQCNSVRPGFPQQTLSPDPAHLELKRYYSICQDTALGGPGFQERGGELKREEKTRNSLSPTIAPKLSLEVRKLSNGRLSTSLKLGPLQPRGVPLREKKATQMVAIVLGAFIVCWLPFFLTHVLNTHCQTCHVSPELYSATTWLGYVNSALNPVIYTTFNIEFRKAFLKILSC
Neuronal acetylcholine receptor subunit alpha-4, sequence (P43681 whole entry): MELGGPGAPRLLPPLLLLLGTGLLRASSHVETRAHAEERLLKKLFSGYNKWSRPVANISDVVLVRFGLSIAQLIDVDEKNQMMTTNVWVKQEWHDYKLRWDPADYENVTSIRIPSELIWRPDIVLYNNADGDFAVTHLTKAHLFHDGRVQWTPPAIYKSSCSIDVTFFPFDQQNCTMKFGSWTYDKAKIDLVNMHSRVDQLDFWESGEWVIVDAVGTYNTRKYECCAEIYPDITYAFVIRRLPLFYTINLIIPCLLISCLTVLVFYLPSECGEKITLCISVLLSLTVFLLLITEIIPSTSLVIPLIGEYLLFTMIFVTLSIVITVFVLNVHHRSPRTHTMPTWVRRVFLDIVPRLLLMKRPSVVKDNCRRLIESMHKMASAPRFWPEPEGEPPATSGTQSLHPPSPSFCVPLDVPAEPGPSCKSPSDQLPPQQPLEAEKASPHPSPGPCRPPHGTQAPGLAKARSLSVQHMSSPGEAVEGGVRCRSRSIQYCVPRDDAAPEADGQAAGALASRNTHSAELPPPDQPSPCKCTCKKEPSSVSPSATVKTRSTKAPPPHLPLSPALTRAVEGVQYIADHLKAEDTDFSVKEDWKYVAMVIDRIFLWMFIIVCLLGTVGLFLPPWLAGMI

Broadly, the AC50 is the concentration at which the activity in the assay is half-maximal. A lower AC50 goes with greater potency. Consider `CCCc1nc2c(C)cc(-c3nc4ccccc4n3C)cc2n1Cc1ccc(-c2ccccc2C(=O)O)cc1`, for which the AC50 was more than 30 µM on Adenosine receptor A1; 18.3 µM at Adenosine receptor A3; more than 30 µM in [1]; more than 30 µM on B2 bradykinin receptor; more than 30 µM in [2]; more than 30 µM on Estrogen receptor. For the same compound, the AC50 (in test [3]; in [4]; on D(3) dopamine receptor; on Histamine H3 receptor) was more than 30 µM throughout.

With `CC[C@@H]1C[C@]1(NC(=O)[C@@H]1C[C@@H]2CN1C(=O)[C@H](C(C)(C)C)NC(=O)OCC(C)(C)CCCCc1cccc3c1CN(C3)C(=O)O2)C(=O)NS(=O)(=O)C1CC1`, the AC50 in [5] was more than 3 µM; on Estrogen receptor it was more than 30 µM.

In the case of `CC(=O)NO` [ACETOHYDROXAMIC ACID], the AC50 in [5] is more than 30 µM.

With `CC(=O)NCCCCCC(=O)O` [ACEXAMIC ACID], the AC50 (in test [5]; on Estrogen receptor) was more than 30 µM in each case.

For the compound `C=C(C)CNc1ccc(C(C)C(=O)O)cc1` (stereo unspecified) [ALMINOPROFEN], the AC50 (in [5]; at Estrogen receptor) was more than 30 µM in each case.

As for `C[C@H]1CN(C[C@H](Cc2ccccc2)C(=O)NCC(=O)O)CC[C@@]1(C)c1cccc(O)c1` [ALVIMOPAN], the AC50 (in [5]; at Estrogen receptor) was more than 30 µM throughout.

With `C[C@H]1O[C@@H](O[C@H]2CC[C@@]3(C)[C@H](CC[C@@H]4[C@@H]3C[C@@H](O)[C@]3(C)[C@@H](C5=CC(=O)OC5)CC[C@]43O)C2)C[C@H](O)[C@@H]1O[C@H]1C[C@H](O)[C@H](O[C@H]2C[C@H](O)[C@H](O[C@@H]3O[C@H](CO)[C@@H](O)[C@H](O)[C@H]3O)[C@@H](C)O2)[C@@H](C)O1` [DESLANOSIDE], the AC50 (in [5]; on Estrogen receptor) was more than 30 µM throughout.

As for `CC[C@H]1OC(=O)[C@H](C)[C@@H](O[C@H]2C[C@@](C)(OC)[C@@H](O)[C@H](C)O2)[C@H](C)[C@@H](O[C@@H]2O[C@H](C)C[C@H](N(C)C)[C@H]2O)[C@](C)(O)C[C@@H](C)[C@@H]2N[C@@H](COCCOC)O[C@H]([C@H]2C)[C@]1(C)O` [DIRITHROMYCIN], the AC50 (in test [5]; at Estrogen receptor) was more than 30 µM throughout.

In test [5], `CCCCc1oc2ccc(NS(C)(=O)=O)cc2c1C(=O)c1ccc(OCCCN(CCCC)CCCC)cc1` [DRONEDARONE] showed an AC50 of 7.76 µM.

`CC(C)C(=O)Oc1ccc(CO)cc1[C@H](CCN(C(C)C)C(C)C)c1ccccc1` [FESOTERODINE]: the AC50 in test [5] is 0.354 µM; on Estrogen receptor, more than 30 µM.

On to `Cc1ccc(C)c(OCCCC(C)(C)C(=O)O)c1` [GEMFIBROZIL], for which the AC50 at Adenosine receptor A1 is more than 30 µM; on Adenosine receptor A3, more than 30 µM; in [1] it was more than 10 µM; on B2 bradykinin receptor, more than 30 µM; in test [2], more than 10 µM; at Estrogen receptor it was more than 30 µM. The AC50 in test [3] is more than 30 µM; in [4], more than 30 µM; at D(3) dopamine receptor it was more than 10 µM; at Histamine H3 receptor it was more than 10 µM.

For the compound `C[N+](C)(CCCCCC[N+](C)(C)C1c2ccccc2-c2ccccc21)C1c2ccccc2-c2ccccc21` [HEXAFLUORENIUM], the results for the AC50 (in [5]; on Estrogen receptor) were 7.41 µM and more than 30 µM, respectively.

Regarding `CCCCC(CC)CN1CN(CC(CC)CCCC)CC(C)(N)C1` (stereo unspecified) [HEXETIDINE], the AC50 in [5] was 9.85 µM; on Estrogen receptor, more than 30 µM.

Turning to `Cc1cc(=O)oc2cc(O)ccc12` [HYMECROMONE], the AC50 (in test [5]; on Estrogen receptor) was more than 30 µM in each case.

Regarding `COc1c2occc2c(OC)c2c(=O)cc(C)oc12` [KHELLIN], in test [5], the AC50 was more than 30 µM.

As for `CC(C)[C@@H]1CC[C@@H](C)C[C@H]1O` [LEVOMENTHOL], the AC50 in test [5] is more than 30 µM.

As for `COC(=O)[C@@H](N)Cc1ccc(O)c(O)c1` [MELEVODOPA], the AC50 in test [5] worked out at 22.1 µM.

Take `C[N+]1(C)CCCC(OC(=O)C(O)(c2ccccc2)c2ccccc2)C1` (stereo unspecified) [MEPENZOLATE]: the AC50 (in [5]; at Estrogen receptor) was more than 30 µM each time.

As for `C=N[C@@H](C(=O)N[C@@H]1C(=O)N2[C@@H]1SC(C)(C)[C@@H]2C(=O)O)c1ccccc1` [METAMPICILLIN], the AC50 in test [5] is more than 30 µM.

Regarding `O=C(NNCS(=O)(=O)O)c1ccncc1` [METHANIAZIDE], the AC50 (in [5]; at Estrogen receptor) was more than 30 µM throughout.

On to `Cc1cc(=O)[nH]c(=S)[nH]1` [METHYLTHIOURACIL], for which the AC50 (in test [5]; on Estrogen receptor) was more than 30 µM throughout.

On to `CN(C)c1ccc(O)c2c1C[C@H]1C[C@H]3[C@H](N(C)C)C(O)=C(C(N)=O)C(=O)[C@@]3(O)C(O)=C1C2=O` [MINOCYCLINE], for which the AC50 (in test [5]; on Estrogen receptor) was more than 30 µM throughout.

Take `CCNC(=O)/C=C(C)/C=C/C=C(C)/C=C/c1c(C)cc(OC)c(C)c1C` [MOTRETINIDE]: the concentration at half-maximal activity (AC50) in test [5] was found to be 16.6 µM; at Estrogen receptor, 16.4 µM.

Consider `C=CC(=O)Nc1cccc(Oc2nc(Nc3ccc(N4CCN(C)CC4)cc3)nc3ccsc23)c1` [OLMUTINIB], for which the AC50 in test [5] stood at 2.29 µM; at Estrogen receptor, 28.6 µM.

`CCCCC1C(=O)N(c2ccccc2)N(c2ccc(O)cc2)C1=O` (stereo unspecified) [OXYPHENBUTAZONE ANHYDROUS] registered an AC50 in test [5] of more than 30 µM.

In turn, `O=C(O)CN(CCN(CC(=O)O)CC(=O)O)CCN(CC(=O)O)CC(=O)O` [PENTETIC ACID] came in with an AC50 in test [5] of more than 30 µM.

Take `Nc1cccc2c1C(=O)N(C1CCC(=O)NC1=O)C2=O` (stereo unspecified) [POMALIDOMIDE]: the AC50 (in test [5]; on Estrogen receptor) was more than 30 µM each time.

Turning to `C[Se]CC[C@H](N)C(=O)O` [SELENOMETHIONINE], the AC50 (in [5]; on Estrogen receptor) was more than 30 µM in each case.

In test [5], `Cc1ccccc1C(=O)Nc1ccc(C(=O)N2CCCC(O)c3cc(Cl)ccc32)c(C)c1` (stereo unspecified) [TOLVAPTAN] had an AC50 of 11.3 µM.

Consider `CC[C@]12CCCN3CCc4c(n(c5ccccc45)[C@@](O)(C(=O)OC)C1)[C@@H]32` [VINCAMINE], for which, in test [5], the AC50 is more than 30 µM.
